The values below come from the supplement of paper PMC10290057.

Counter-ions that a name gives are not always drawn.
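Further: Luminescence-based viability readout, five doses per compound, normalized against on-plate DMSO and empty-well controls, followed by dose-response curve fitting for every drug.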

The test system of the assay is HCT116. The assay is described as follows: efficacy (fitted maximal change in viability relative to DMSO control); higher = less cytotoxic (negative = loss of viability). Conditions: 48 h.
With `N=C(N)NN.N=C(N)NN.O=S(=O)(O)O` [AMINOGUANIDINE HYDROCHLORIDE], the efficacy is -9.44%.

With `N#Cc1ccc(Oc2ccc3c(c2)COB3O)cc1` [AN-2728], the efficacy is -21.2%.

For `COCC1(CO)C(=O)C2CCN1CC2` (centres undefined) [APR-246], the efficacy is -7.36%.

Take `Cc1cc(O)cc2c1[C@]1(C)CC[C@H]3C(C)(C)CCC[C@]3(C)[C@H]1C2` [AQX-MN-100]: the efficacy was determined as 19.8%.

On to `CC1=CC=C(C=C1)\C2=N\C3=CC=C(Cl)C=C3OC2` [AR-7], for which the efficacy was -31.7%.

Consider `CC(C)[C@H](C(=O)Nc1ccc(C(=O)NO)cc1)c1ccccc1` [AR-42], for which the efficacy is -43.8%.

For the compound `C=CC(=O)N1CC(N2CCN(C(=O)CNc3cc(C4(C)CC4)c(Cl)cc3O)CC2)C1` [ARS-853], the efficacy is -63.4%.

As to `CN[C@@H](C)C(=O)N[C@H]1CN(C(=O)CC(C)C)CC[C@H]2CC[C@@H](C(=O)NC(c3ccccc3)c3ccccc3)N2C1=O` [AT-406], the efficacy is -8.4%.

For `C[C@@H]1CN(CC(=O)N2CC(C)(C)c3ncc(Cc4ccc(F)cc4)cc32)[C@@H](CN2CCOC[C@H]2C)CN1` [AT-IAP], the efficacy is -62.8%.

Consider `CC(=O)N1CCC[C@H]1C(=O)N[C@@H](Cc1c[nH]cn1)C(=O)N[C@@H](CO)C(=O)N[C@@H](CS)C(=O)N[C@@H](CC(N)=O)C(N)=O` [ATN-161], for which the efficacy was -6.15%.

On to `COC1=CC2=C(OC\C(=C2\C3=CC=C(F)C=C3)CN4CCCC4)C=C1` [AX-024], for which the efficacy was -55.9%.

For `CCN(CCCOc1ccc2c(Nc3cc(CC(=O)Nc4cccc(F)c4)[nH]n3)ncnc2c1)CCOP(=O)(O)O` [AZD1152], the efficacy was -24.9%.

Turning to `C[N]1N=CC=C1C/2=C(\C)N(C(=O)C(=C2)/C(=O)NCC3=NC=C(C=C3)[S+](C)([O-])=O)C4=CC=CC(=C4)C(F)(F)F` [AZD9668], the efficacy was 12.5%.

For the compound `NC(=O)c1cnc(-c2ccc(C3(N)CCC3)cc2)c(-c2ccccc2)c1` [AZD-26], the efficacy was -66.9%.

Consider `COC1CCN(CC1)C(=O)C2=CC(=CC=C2F)CC/3=N/NC(=O)C4=CC=CC=C34` [AZD-2461], for which the efficacy was -29.2%.

Turning to `Cc1noc(C)c1-c1ccc(-c2cc(C(N)=O)c(NC(N)=O)s2)c(O[C@H]2CCNC2)c1` [AZD-3264], the efficacy is -40.3%.

As to `COc1cc2ncnc(Nc3cccc(Cl)c3F)c2cc1OC(=O)N1CCN(C)C[C@H]1C` [AZD-3759], the efficacy was -38.2%.

For the compound `Cc1[nH]nc(C(F)(F)F)c1Cc1sc2c(c1C(=O)N1C[C@](C)(O)CO1)c(=O)n(C)c(=O)n2C(C)C` [AZD-3965], the efficacy is -11.2%.

Regarding `CC(C)C[C@H](CO)Nc1nc(S[C@@H](C)c2ccccc2)nc2nc(N)sc12` [AZD-8797], the efficacy was -86.1%.

Turning to `CCn1nc(C2CCN(C(=O)CCO)CC2)nc1-c1cnc(N)c(-c2nnc(C(C)(C)C)o2)n1` [AZD-8835], the efficacy is -18.9%.

As to `C[C@@H]1Cc2c([nH]c3ccccc23)[C@@H](c2c(F)cc(/C=C/C(=O)O)cc2F)N1CC(C)(C)F` [AZD-9496 maleate], the efficacy was -13.1%.

For the compound `C[C@]\12CC[C@H](O)CC1=C/C[C@@H]3[C@@H]2CC[C@@]\4(C)[C@H]3C\C=C4C5=CN=CC=C5` [Abiraterone], the efficacy is 7.6%.

With `CC(=O)NCCC(=O)N[C@@H](CCC(N)=O)C(=O)N[C@@H](CO)C(=O)N[C@@H](CCC(N)=O)C(=O)N[C@@H](CCC(N)=O)C(=O)N[C@H](C(=O)N[C@@H](Cc1ccccc1)C(=O)N[C@]1(C)CCCCCC/C=C\CCC[C@@](C)(C(=O)N[C@@H](CCC(N)=O)C(=O)N[C@@H](CC(N)=O)C(N)=O)NC(=O)[C@H](CC(C)C)NC(=O)[C@H](CC(C)C)NC(=O)[C@@H](CCCNC(=N)N)NC(=O)[C@H](Cc2c[nH]c3ccccc23)NC(=O)[C@H](CC(C)C)NC(=O)[C@H](CC(N)=O)NC1=O)[C@H](C)O` [Ac-SAH-p53-8], the efficacy is -6.69%.

Take `NC(=O)c1ncn([C@@H]2O[C@H](CO)[C@@H](O)[C@H]2O)c1N` [Acadesine]: the efficacy is 7.93%.
